A value given as a limit tells only on which side of the number the result lay.

Experiment [1] has as its target T1, Recombinant wild type LRRK2 protein (Homo sapiens, UniProt Q5S007).
T1 construct: purchased Life Technologies PR8604B
The experiment is described as follows: LanthaScreen Kinase Activity Assay (TR-FRET), wild type LRRK2. Type of experiment: biochemical. Particulars: class symbols; 25 μM ATP, 400 nM LRRKtide, 2.9 nM kinase, 60 min at room temperature; read-out: LRRK2 WT IC50. An outline of the steps: (§1)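 Recombinant wild-type or G2019S LRRK2 (2.9 nM final) phosphorylated fluorescein-LRRKtide (400 nM) with 25 μM ATP in 50 mM Tris pH 8.5, 5 mM MgCl2, 1 mM EGTA, 0.01% Brij-35, 2 mM DTT for 60 min at RT. After EDTA stop, Tb-anti-pERM TR-FRET (520/495 nm ratio) was read. IC50 values came from 11-point, 3-fold compound dilutions.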
A general note: TR-FRET usually uses a lanthanide donor and a delayed reading to cut background.

In experiment [2] the target is T2, Recombinant G2019S-LRRK2 protein (Homo sapiens, UniProt Q5S007, G2019S).
T2 construct: purchased Life Technologies PV4881
Description: LanthaScreen Kinase Activity Assay (TR-FRET), G2019S-LRRK2. As to conditions: class symbols; 25 μM ATP, 400 nM LRRKtide, 2.9 nM kinase, 60 min at room temperature. Type of experiment: biochemical. The essentials:
as §1

T2 sequence (Q5S007 whole entry G2019S): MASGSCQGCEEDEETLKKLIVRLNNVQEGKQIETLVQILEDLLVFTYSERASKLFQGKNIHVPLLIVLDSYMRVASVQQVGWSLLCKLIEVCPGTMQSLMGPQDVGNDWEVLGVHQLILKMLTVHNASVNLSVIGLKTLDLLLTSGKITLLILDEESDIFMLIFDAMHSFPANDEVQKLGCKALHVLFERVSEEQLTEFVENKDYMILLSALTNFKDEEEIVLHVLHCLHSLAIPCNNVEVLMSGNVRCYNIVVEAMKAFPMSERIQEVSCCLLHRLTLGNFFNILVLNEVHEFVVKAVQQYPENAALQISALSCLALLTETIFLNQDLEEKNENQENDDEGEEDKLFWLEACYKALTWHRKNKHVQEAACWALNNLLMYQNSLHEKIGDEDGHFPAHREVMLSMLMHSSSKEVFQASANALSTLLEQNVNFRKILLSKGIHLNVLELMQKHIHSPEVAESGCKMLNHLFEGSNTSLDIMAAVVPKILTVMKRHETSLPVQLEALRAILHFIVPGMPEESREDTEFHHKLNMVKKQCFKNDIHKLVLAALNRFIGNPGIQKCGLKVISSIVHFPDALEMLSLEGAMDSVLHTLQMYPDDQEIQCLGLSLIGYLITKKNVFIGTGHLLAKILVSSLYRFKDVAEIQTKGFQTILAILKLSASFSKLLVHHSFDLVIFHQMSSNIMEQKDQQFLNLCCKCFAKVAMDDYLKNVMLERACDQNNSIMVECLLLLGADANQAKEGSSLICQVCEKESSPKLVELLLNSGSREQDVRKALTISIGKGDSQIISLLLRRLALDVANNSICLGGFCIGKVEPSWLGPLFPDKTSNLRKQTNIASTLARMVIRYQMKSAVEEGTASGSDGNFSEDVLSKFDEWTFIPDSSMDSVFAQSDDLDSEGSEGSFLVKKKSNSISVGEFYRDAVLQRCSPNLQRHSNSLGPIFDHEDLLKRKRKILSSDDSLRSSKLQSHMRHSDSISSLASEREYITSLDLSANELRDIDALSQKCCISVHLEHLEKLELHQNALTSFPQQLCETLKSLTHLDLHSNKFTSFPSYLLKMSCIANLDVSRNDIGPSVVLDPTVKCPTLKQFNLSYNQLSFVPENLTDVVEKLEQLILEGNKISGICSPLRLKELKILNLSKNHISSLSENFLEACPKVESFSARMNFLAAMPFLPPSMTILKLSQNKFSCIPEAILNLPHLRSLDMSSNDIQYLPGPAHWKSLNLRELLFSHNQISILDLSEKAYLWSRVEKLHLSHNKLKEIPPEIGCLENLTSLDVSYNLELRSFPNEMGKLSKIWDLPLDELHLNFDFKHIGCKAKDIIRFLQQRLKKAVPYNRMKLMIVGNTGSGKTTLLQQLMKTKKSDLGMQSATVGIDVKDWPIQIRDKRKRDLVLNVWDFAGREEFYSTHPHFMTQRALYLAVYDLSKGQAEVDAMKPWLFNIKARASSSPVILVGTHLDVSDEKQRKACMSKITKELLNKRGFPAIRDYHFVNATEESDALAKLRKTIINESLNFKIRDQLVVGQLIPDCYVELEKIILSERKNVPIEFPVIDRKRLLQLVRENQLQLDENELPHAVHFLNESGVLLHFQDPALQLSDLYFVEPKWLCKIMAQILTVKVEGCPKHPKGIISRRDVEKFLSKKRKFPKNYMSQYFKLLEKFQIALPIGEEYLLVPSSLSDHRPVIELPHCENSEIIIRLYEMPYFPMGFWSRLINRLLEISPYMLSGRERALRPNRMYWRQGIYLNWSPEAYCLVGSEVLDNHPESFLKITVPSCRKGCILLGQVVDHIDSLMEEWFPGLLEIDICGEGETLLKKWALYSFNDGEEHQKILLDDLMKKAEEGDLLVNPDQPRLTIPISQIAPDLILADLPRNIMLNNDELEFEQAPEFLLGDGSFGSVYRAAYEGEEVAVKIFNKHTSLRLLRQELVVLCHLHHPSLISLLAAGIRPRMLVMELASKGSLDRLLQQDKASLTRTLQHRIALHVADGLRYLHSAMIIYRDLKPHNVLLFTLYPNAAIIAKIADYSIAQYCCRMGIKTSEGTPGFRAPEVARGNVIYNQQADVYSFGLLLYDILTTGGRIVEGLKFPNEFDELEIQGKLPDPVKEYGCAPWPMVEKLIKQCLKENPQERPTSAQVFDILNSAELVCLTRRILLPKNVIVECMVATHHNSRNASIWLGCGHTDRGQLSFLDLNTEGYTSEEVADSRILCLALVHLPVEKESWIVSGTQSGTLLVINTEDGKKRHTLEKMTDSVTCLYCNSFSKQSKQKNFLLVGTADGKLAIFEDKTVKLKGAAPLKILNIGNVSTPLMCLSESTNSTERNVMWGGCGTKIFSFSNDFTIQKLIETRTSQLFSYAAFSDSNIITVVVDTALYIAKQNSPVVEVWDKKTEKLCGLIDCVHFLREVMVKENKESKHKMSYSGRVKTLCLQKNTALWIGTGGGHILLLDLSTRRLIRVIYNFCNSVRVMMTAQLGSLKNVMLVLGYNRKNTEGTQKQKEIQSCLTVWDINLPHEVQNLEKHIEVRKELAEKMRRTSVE
T1 sequence (Q5S007 whole entry): as the sequence (Q5S007 whole entry G2019S) above, with S2019G counted along it

Regarding `Cn1ncc2c(F)c(C(=O)Nc3ccc4[nH]nc(N5CCCC5)c4c3)c(F)cc21` [Example 108, 4,6-Difluoro-1-methyl-N-(3-(pyrrolidin-1-yl)-1H-indazol-5-yl)-1H-indazole-5-carboxamide], the IC50 in experiment [1] fell in the range of 1000 to 10000 nM; in experiment [2] it was 100 to 1000 nM.
The like results for `Cn1ncc2c(F)c(C(=O)Nc3ccc4[nH]nc(N5Cc6ccccc6C5)c4c3)c(F)cc21` [Example 109, 4,6-Difluoro-N-(3-(isoindolin-2-yl)-1H-indazol-5-yl)-1-methyl-1H-indazole-5-carboxamide] were, in that order, 100 to 1000 nM and no more than 100 nM.
The like results for `Cn1ncc2c(F)c(C(=O)Nc3ccc4[nH]nc(NCc5ccccc5)c4c3)c(F)cc21` [Example 110, N-(3-(Benzylamino)-1H-indazol-5-yl)-4,6-difluoro-1-methyl-1H-indazole-5-carboxamide] were, in that order, 100 to 1000 nM and no more than 100 nM.
The corresponding values for `Cc1nc2cncn2c(C)c1C(=O)Nc1ccc2[nH]nc(I)c2c1` [Example 111, N-(3-Iodo-1H-indazol-5-yl)-2,4-dimethylimidazo[1,5-a]pyrimidine-3-carboxamide] are no more than 100 nM and no more than 100 nM.
As for `Cc1nc2cncn2c(C)c1C(=O)Nc1ccc2[nH]nc(-c3ccoc3)c2c1` [Example 112, N-(3-(Furan-3-yl)-1H-indazol-5-yl)-2,4-dimethylimidazo[1,5-a]pyrimidine-3-carboxamide], the IC50 in experiment [1] is 100 to 1000 nM; in experiment [2] it was no more than 100 nM.
The corresponding values for `Cc1c(C(=O)Nc2ccc3[nH]nc(-c4ccoc4)c3c2)cnc2cncn12` [Example 113, N-(3-(Furan-3-yl)-1H-indazol-5-yl)-4-methylimidazo[1,5-a]pyrimidine-3-carboxamide] are no more than 100 nM and no more than 100 nM.
The corresponding values for `Cn1ncc2c(F)c(C(=O)Nc3ccc4[nH]nc(C(F)(F)F)c4c3)c(F)cc21` [Example 115, 4,6-Difluoro-1-methyl-N-(3-(trifluoromethyl)-1H-indazol-5-yl)-1H-indazole-5-carboxamide] are 100 to 1000 nM and no more than 100 nM.
The corresponding values for `O=C(Nc1ccc2[nH]nc(-c3ccoc3)c2c1)c1ccc2ncoc2c1` [Example 116, N-(3-(furan-3-yl)-1H-indazol-5-yl)benzo[d]oxazole-6-carboxamide] are 100 to 1000 nM and no more than 100 nM.
Consider `O=C(Nc1ccc2[nH]nc(-c3ccoc3)c2c1)c1ccn2nccc2c1` [Example 117, N-(3-(Furan-3-yl)-1H-indazol-5-yl)pyrazolo[1,5-a]pyridine-5-carboxamide], for which the half-inhibitory concentration (IC50) is 100 to 1000 nM in experiment [1] and no more than 100 nM in experiment [2].
The corresponding values for `O=C(Nc1ccc2[nH]nc(-c3ccoc3)c2c1)c1ccn2ccnc2c1` [Example 118, N-(3-(Furan-3-yl)-1H-indazol-5-yl)imidazo[1,2-a]pyridine-7-carboxamide] are 100 to 1000 nM and 100 to 1000 nM.
The corresponding values for `O=C(Nc1ccc2[nH]nc(-c3ccoc3)c2c1)c1ccc2nccn2c1` [Example 119, N-(3-(Furan-3-yl)-1H-indazol-5-yl)imidazo[1,2-a]pyridine-6-carboxamide] are 100 to 1000 nM and no more than 100 nM.
The like results for `O=C(Nc1ccc2[nH]nc(-c3ccoc3)c2c1)c1ccc2nsnc2c1` [Example 120, N-(3-(Furan-3-yl)-1H-indazol-5-yl)benzo[c][1,2,5]thiadiazole-5-carboxamide] were, in that order, 100 to 1000 nM and no more than 100 nM.
Turning to `O=C(Nc1ccc2[nH]nc(-c3ccoc3)c2c1)c1ccc2snnc2c1` [Example 121, N-(3-(Furan-3-yl)-1H-indazol-5-yl)benzo[d][1,2,3]thiadiazole-5-carboxamide], the IC50 in experiment [1] and in experiment [2] was no more than 100 nM each time.
As for `O=C(Nc1ccc2[nH]nc(-c3ccoc3)c2c1)c1ccc2ncsc2n1` [Example 122, N-(3-(Furan-3-yl)-1H-indazol-5-yl)thiazolo[5,4-b]pyridine-5-carboxamide], the half-inhibitory concentration (IC50) in experiment [1] and in experiment [2] was no more than 100 nM each time.
With `O=C(Nc1ccc2[nH]nc(-c3ccoc3)c2c1)c1ccc2ncsc2c1` [Example 123, N-(3-(Furan-3-yl)-1H-indazol-5-yl)benzo[d]thiazole-6-carboxamide], the IC50 is 100 to 1000 nM in experiment [1] and no more than 100 nM in experiment [2].
As for `O=C(Nc1ccc2[nH]nc(-c3ccoc3)c2c1)c1ccc2scnc2c1` [Example 124, N-(3-(Furan-3-yl)-1H-indazol-5-yl)benzo[d]thiazole-5-carboxamide], the IC50 in experiment [1] and in experiment [2] was 100 to 1000 nM each time.
On to `O=C(Nc1ccc2[nH]nc(-c3ccoc3)c2c1)c1cc2ncccc2s1` [Example 125, N-(3-(Furan-3-yl)-1H-indazol-5-yl)thieno[3,2-b]pyridine-2-carboxamide], for which the IC50 in experiment [1] was 100 to 1000 nM; in experiment [2], no more than 100 nM.
The like results for `O=C(Nc1ccc2[nH]nc(-c3ccoc3)c2c1)c1ccc2ocnc2c1` [Example 126, N-(3-(Furan-3-yl)-1H-indazol-5-yl)benzo[d]oxazole-5-carboxamide] were, in that order, 100 to 1000 nM and no more than 100 nM.
The corresponding values for `O=C(Nc1ccc2[nH]nc(-c3ccoc3)c2c1)c1ccn2nccc2n1` [Example 127, N-(3-(Furan-3-yl)-1H-indazol-5-yl)pyrazolo[1,5-a]pyrimidine-5-carboxamide] are 100 to 1000 nM and no more than 100 nM.
`O=C(Nc1ccc2[nH]nc(-c3ccoc3)c2c1)c1cn2cccnc2n1` [Example 128, N-(3-(Furan-3-yl)-1H-indazol-5-yl)imidazo[1,2-a]pyrimidine-2-carboxamide]: the IC50 in experiment [1] and in experiment [2] was 100 to 1000 nM throughout.
With `O=C(Nc1ccc2[nH]nc(-c3ccoc3)c2c1)c1cnc2nccn2c1` [Example 129, N-(3-(Furan-3-yl)-1H-indazol-5-yl)imidazo[1,2-a]pyrimidine-6-carboxamide], the IC50 in experiment [1] is 100 to 1000 nM; in experiment [2], no more than 100 nM.
The corresponding values for `O=C(Nc1ccc2[nH]nc(-c3ccoc3)c2c1)c1cnc2ccnn2c1` [Example 130, N-(3-(Furan-3-yl)-1H-indazol-5-yl)pyrazolo[1,5-a]pyrimidine-6-carboxamide] are 100 to 1000 nM and 100 to 1000 nM.
Turning to `Cn1cnc2ccc(C(=O)Nc3ccc4[nH]nc(-c5ccoc5)c4c3)cc21` [Example 131, N-(3-(Furan-3-yl)-1H-indazol-5-yl)-1-methyl-1H-benzo[d]imidazole-6-carboxamide], the half-inhibitory concentration (IC50) in experiment [1] and in experiment [2] was no more than 100 nM each time.
Regarding `Cn1cnc2cc(C(=O)Nc3ccc4[nH]nc(-c5ccoc5)c4c3)ccc21` [Example 132, N-(3-(Furan-3-yl)-1H-indazol-5-yl)-1-methyl-1H-benzo[d]imidazole-5-carboxamide], the IC50 in experiment [1] and in experiment [2] was 100 to 1000 nM in each case.
With `Cn1ncc2cc(C(=O)Nc3ccc4[nH]nc(-c5ccoc5)c4c3)ccc21` [Example 133, N-(3-(Furan-3-yl)-1H-indazol-5-yl)-1-methyl-1H-indazole-5-carboxamide], the IC50 in experiment [1] and in experiment [2] was no more than 100 nM in each case.
For `Cc1nc2ccc(C(=O)Nc3ccc4[nH]nc(-c5ccoc5)c4c3)cc2o1` [Example 134, N-(3-(Furan-3-yl)-1H-indazol-5-yl)-2-methylbenzo[d]oxazole-6-carboxamide], the IC50 was 100 to 1000 nM in experiment [1] and no more than 100 nM in experiment [2].
The like results for `Cn1ncc2c(F)c(C(=O)Nc3ccc4[nH]nc(-c5ccon5)c4c3)c(F)cc21` [Example 135, 4,6-Difluoro-N-(3-(isoxazol-3-yl)-1H-indazol-5-yl)-1-methyl-1H-indazole-5-carboxamide] were, in that order, no more than 100 nM and no more than 100 nM.
The corresponding values for `Cn1ncc2c(F)c(C(=O)Nc3ccc4[nH]nc(-c5cocn5)c4c3)c(F)cc21` [Example 136, 4,6-Difluoro-1-methyl-N-(3-(oxazol-4-yl)-1H-indazol-5-yl)-1H-indazole-5-carboxamide] are 100 to 1000 nM and no more than 100 nM.
The like results for `Cn1ncc2c(F)c(C(=O)Nc3ccc4[nH]nc(-c5ccno5)c4c3)c(F)cc21` [Example 137, 4,6-Difluoro-N-(3-(isoxazol-5-yl)-1H-indazol-5-yl)-1-methyl-1H-indazole-5-carboxamide] were, in that order, no more than 100 nM and no more than 100 nM.
In the case of `Cn1ncc2c(F)c(C(=O)Nc3ccc4[nH]nc(-c5ncco5)c4c3)c(F)cc21` [Example 138, 4,6-Difluoro-1-methyl-N-(3-(oxazol-2-yl)-1H-indazol-5-yl)-1H-indazole-5-carboxamide], the half-inhibitory concentration (IC50) was 100 to 1000 nM in experiment [1] and no more than 100 nM in experiment [2].
The like results for `Cn1ncc2c(F)c(C(=O)Nc3ccc4[nH]nc(N5CCC5)c4c3)c(F)cc21` [Example 139, N-(3-(Azetidin-1-yl)-1H-indazol-5-yl)-4,6-difluoro-1-methyl-1H-indazole-5-carboxamide] were, in that order, 1000 to 10000 nM and 100 to 1000 nM.
Turning to `Cn1ncc2c(F)c(C(=O)Nc3ccc4[nH]nc(Cc5ccccc5)c4c3)c(F)cc21` [Example 140, N-(3-Benzyl-1H-indazol-5-yl)-4,6-difluoro-1-methyl-1H-indazole-5-carboxamide], the IC50 in experiment [1] lay in the range of 1000 to 10000 nM; in experiment [2] it was 100 to 1000 nM.
The corresponding values for `Cn1ncc2c(F)c(C(=O)Nc3ccc4[nH]nc(-n5ccnc5)c4c3)c(F)cc21` [Example 141, N-(3-(1H-Imidazol-1-yl)-1H-indazol-5-yl)-4,6-difluoro-1-methyl-1H-indazole-5-carboxamide] are 100 to 1000 nM and no more than 100 nM.

One may read the IC50 as the concentration that gives 50% inhibition.
